Measurements: the supplement of paper PMC10307832

How the values were obtained:
Experiment in all cases: relative viability (nuclei count vs DMSO), 5 days (fraction); higher = more cells survive
[1] = system: NCI-H520
Method in brief: (§1)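 Each reported value is a median over duplicate plates. It expresses relative viability: treated-well nuclei count divided by vehicle-well nuclei count. Lung cancer cell lines in 1536-well plates were dosed by pin tool a day after seeding, alone with one drug or with a fixed anchor-drug dose plus five library-drug doses (not always all listed) in √10 steps, and nuclei were counted after 5 days.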

[2] = system: NCI-H1975
Method in brief: as §1

[3] = system: NCI-H2347
Method in brief: as §1

[4] = system: EMC-BAC-2
Method in brief: as §1

[5] = system: SW 1573
Method in brief: as §1

[6] = system: ABC-1
Method in brief: as §1

[7] = system: NCI-H1355
Method in brief: as §1

[8] = system: NCI-H1793
Method in brief: as §1

[9] = system: PC-3 [JPC-3]
Method in brief: as §1

[10] = system: NCI-H460
Method in brief: as §1

[11] = system: NCI-H2009
Method in brief: as §1

[12] = system: NCI-H2126
Method in brief: as §1

## O=C(O)CCCCC(CCSCc1ccccc1)SCc1ccccc1 (configuration not stated) [CPI-613] + CS(=O)(=O)N1CCN(Cc2cc3nc(-c4cccc5[nH]ncc45)nc(N4CCOCC4)c3s2)CC1 [Pictilisib] (partner 1 µM)
[1]; first compound 5 µM
  relative viability: 0.271
[1]; first compound 15.81 µM
  relative viability: 0.279
[1]; first compound 50 µM
  relative viability: 0.286
[1]; first compound 158.11 µM
  relative viability: 0.172
[1]; first compound 500 µM
  relative viability: 0.134
[2]; first compound 5 µM
  relative viability: 0.292
[2]; first compound 15.81 µM
  relative viability: 0.225
[2]; first compound 50 µM
  relative viability: 0.314
[2]; first compound 158.11 µM
  relative viability: 0.258
[2]; first compound 500 µM
  relative viability: 0.0574
[3]; first compound 5 µM
  relative viability: 0.524
[3]; first compound 15.81 µM
  relative viability: 0.397
[3]; first compound 50 µM
  relative viability: 0.705
[3]; first compound 158.11 µM
  relative viability: 0.144
[3]; first compound 500 µM
  relative viability: 0.171
[4]; first compound 5 µM
  relative viability: 0.549
[4]; first compound 15.81 µM
  relative viability: 0.483
[4]; first compound 50 µM
  relative viability: 0.556
[4]; first compound 158.11 µM
  relative viability: 0.556
[4]; first compound 500 µM
  relative viability: 0.133
[5]; first compound 5 µM
  relative viability: 0.532
[5]; first compound 15.81 µM
  relative viability: 0.452
[5]; first compound 50 µM
  relative viability: 0.554
[5]; first compound 158.11 µM
  relative viability: 0.46
[5]; first compound 500 µM
  relative viability: 0.481
[6]; first compound 5 µM
  relative viability: 0.771
[6]; first compound 15.81 µM
  relative viability: 0.68
[6]; first compound 50 µM
  relative viability: 0.807
[6]; first compound 158.11 µM
  relative viability: 0.384
[6]; first compound 500 µM
  relative viability: 0.246
[7]; first compound 5 µM
  relative viability: 0.417
[7]; first compound 15.81 µM
  relative viability: 0.389
[7]; first compound 50 µM
  relative viability: 0.374
[7]; first compound 158.11 µM
  relative viability: 0.29
[7]; first compound 500 µM
  relative viability: 0.0921
[8]; first compound 5 µM
  relative viability: 0.248
[8]; first compound 50 µM
  relative viability: 0.266
[8]; first compound 158.11 µM
  relative viability: 0.205
[8]; first compound 500 µM
  relative viability: 0.0326
[9]; first compound 5 µM
  relative viability: 0.683
[9]; first compound 15.81 µM
  relative viability: 0.617
[9]; first compound 50 µM
  relative viability: 0.656
[9]; first compound 158.11 µM
  relative viability: 0.636
[9]; first compound 500 µM
  relative viability: 0.404
[10]; first compound 5 µM
  relative viability: 0.353
[10]; first compound 15.81 µM
  relative viability: 0.315
[10]; first compound 50 µM
  relative viability: 0.347
[10]; first compound 158.11 µM
  relative viability: 0.419
[10]; first compound 500 µM
  relative viability: 0.342
[11]; first compound 5 µM
  relative viability: 0.855
[11]; first compound 15.81 µM
  relative viability: 0.675
[11]; first compound 50 µM
  relative viability: 0.722
[11]; first compound 158.11 µM
  relative viability: 0.0928
[11]; first compound 500 µM
  relative viability: 0.0311
[12]; first compound 5 µM
  relative viability: 0.539
[12]; first compound 15.81 µM
  relative viability: 0.457
[12]; first compound 50 µM
  relative viability: 0.499
